Read-outs that look alike come from different tables or passages of the source.

Here are results for two compounds from US10975060B2, “High relaxivity gadolinium chelate compounds for use in magnetic resonance imaging” (BAYER PHARMA AKTIENGESELLSCHAFT, priority 2016, dated 2021).

For series [1] the following is noted: 37 °C, cited from earlier work.
Series [2] is described as follows: Pharmacokinetic parameters of blood plasma levels after i.v. bolus in male rats (three compartment model). Particulars: i.v. bolus 0.1 mmol Gd/kg, mean, n=3. Format: in vivo, rats (Han-Wistar). As for the experimental part: Pharmacokinetic parameters of Example 6 were determined in male rats (Han-Wistar, 235-270 g, n=3). The compound was administered as a sterile aqueous solution (53.8 mmol Gd/L) as a bolus in the tail vein of the animals. The dose was 0.1 mmol Gd/kg. Blood was sampled 1, 3, 5, 10, 15, 30, 60, 90, 120, 240, 360, 480, and 1440 min post injection and the Gd concentration was determined by Inductively Coupled Plasma Mass Spectrometry (ICP-MS Agilent 7500a, Waldbronn, Germany). The blood level was converted to plasma concentrations by division by 0.625 (plasma fraction of rat blood, assuming strictly extracellular distribution). As a control, 3 animals (Han-Wistar, 248-289 g), were treated in the same way with Reference Compound 1 (Gadovist®), a low molecular weight contrast agent.
The fit of the obtained data to a three compartment model (Phoenix-WinNonlin) yielded the pharmacokinetic parameters which are shown in Table 3.

A short description of series [3]: Dynamic CT diffusion phantom study (dialysis cassette in fetal bovine serum). Format: physicochemical. Conditions: dialysis cassette 20,000 MWCO, 20 mmol Gd/L, CT signal over 30 h. The procedure: The described dynamic CT diffusion study compares the ability of Examples 1-10 and Reference compounds 1 and 4 to pass a semipermeable membrane (20 kDa). A 128-row clinical CT device (SOMATOM Definition, 128; Siemens Healthcare, Forchheim, Germany) was used to monitor the diffusion through a semipermeable membrane at 100 kV and 104 mA. Single measurements were performed at 0 min, 1 min, 2 min, 3 min, 5 min, 10 min, 15 min, 20 min, 30 min, 45 min, 60 min, 2 h, 3 h, 5 h, 7 h, 22 h, 24 h, 30 h after placing the dialysis cassette (Slide-A-Lyser, 20,000 MWCO, 0.1-0.5 mL Capacity, Thermo Scientific, Roskilde, Denmark) filled with contrast agent in fetal bovine serum solution (FBS, Sigma, F7524). The images were reconstructed with a slice thickness of 2.4 mm and a B30 convolution kernel. The used concentration in the dialysis cassettes of the investigated Examples 1-10 and Reference compounds 1 and 4 was 20 mmol Gd/L.
The imaging results for all investigated Examples and the Reference compounds 1 and 4 for the time points 0 min and 30 h after placing the cassettes in the FBS solution are depicted in FIG. 1. For image analysis, regions of interest were manually drawn on 1 centrally located slice for each time point (a representative measurement region is indicated in FIG. 1: Image RC1).

Series [4] is described as follows: Contrast-enhanced magnetic resonance angiography (CE-MRA) at 1.5 T, intraindividual comparison. It counts as in vivo, New Zealand white rabbits. Particulars: rabbits, 25 μmol Gd/kg bw versus standard dose 100 μmol/kg and example compound 6 at 25 μmol/kg. The procedure:
Reference compound 1 (Gadovist®), as an approved representative of the Gadolinium-based MRI contrast agents, was used in both dose protocols (100 μmol Gd/kg bw and 25 μmol Gd/kg bw) and compared to example compound 6 (25 μmol Gd/kg bw).
The contrast-enhanced magnetic resonance angiography study was performed at a clinical 1.5 T Scanner (Magnetom Avanto Fit, Siemens Healthcare, Erlangen, Germany). For optimal signal exploitation, a spine in combination with a body-flex coil was used for the data acquisition. The study was performed on male New Zealand white rabbits (weight 3.6-3.9 kg, n=4, Charles River Kisslegg). The animals received all 3 contrast protocols within one imaging session. The order of the contrast protocols was randomized between the animals.
All animals are initially anesthetized using a body weight-adjusted intramuscular injection of a mixture (1+2) of xylazine hydrochloride (20 mg/mL, Rompun 2%, Bayer Vital GmbH, Leverkusen, Germany) and ketamine hydrochloride (100 mg/mL, Ketavet, Pfizer, Pharmacia GmbH, Berlin, Germany) using 1 mL/kg body weight. The continuous anesthesia of the intubated animals (endotracheal tube, Rueschelit Super Safe Clear, cuff 3.0 mm, Willy Ruesch A G, Kernen, Germany) is achieved by the intravenous injection of 0.9 mg propofol per kilogram per hour (10 mg/mL, Propofol-Lipuro 1%, B. Braun Melsungen A G, Melsungen, Germany). The continuous intravenous injection is performed using a MR infusion system (Continuum MR Infusion System, Medrad Europe B. V., A E Beek, Germany). The tracheal respiration (SV 900C, Maquet, Rastatt, Germany) is performed with 55% oxygen, forty breaths per minute, and a breathing volume of 4 mL per kilogram body weight per minute.
Based on a localizer MRI sequence oriented in coronal, axial, and sagittal directions the anatomic course of the aorta is acquired. A small intravenous test bolus (0.2 mL, Reference compound 1 followed by 1.3 mL saline) was administered to determine the time to peak interval (descending aorta) using a test bolus sequence. The MRA delay time between the start of the contrast injection and the start of image acquisition was calculated by subtracting the time to k-space center from the time to peak interval. For MRA a 3D FLASH sequence (TR=3.3 ms, TE=1.2 ms, flip=25°) was acquired before and after injection of the contrast agent considering the delay time. Both measurements were performed within expiratory breath hold. The time interval for the intraindividual comparison between the different contrast agent applications was twenty to thirty minutes.
Quantitative image evaluation was performed on the subtraction images (post contrast—baseline). […]

Series [5] can be described thus: Relaxivity measurements at 1.4 T (MiniSpec mq60, 60 MHz, 37 °C) in water and human plasma. Format: physicochemical. Particulars: 1.41 T, normalized to Gd. As for the experimental part: Relaxivity Measurements at 1.4 T
Relaxivity measurements at 1.41 T were performed using a MiniSpec mq60 spectrometer (Bruker Analytik, Karlsruhe, Germany) operating at a resonance frequency of 60 MHz and a temperature of 37° C. The T1 relaxation times were determined using the standard inversion recovery (IR) method with a fixed relaxation delay of at least 5×T1. The variable inversion time (TI) was calculated automatically by the standard software of the MiniSpec mq60 (8 steps). The T2 measurements were done by using a Carr-Purcell-Meiboom-Gill (CPMG) pulse sequence, applying a relaxation delay of at least 5×T1.
Each relaxivity measurement was performed using three different Gd concentrations (3 concentrations between 0.05 and 2 mM). The T1 and T2 relaxation times of the example compounds 1 to 10 were measured in different media for example in water and human plasma. Human plasma preparation: For each experiment fresh blood was taken from a volunteer using 10 mL citrate-tubes (Sarstedt S-Monovette 02.1067.001, 10 mL, Citrate). The 10 mL citrate-tubes were carefully inverted 10 times to mix blood and anticoagulant and centrifuged for 15 minutes at 1811 g at room temperature (Eppendorf, Centrifuge 5810R).
The relaxivities ri (where i=1, 2) were calculated on the basis of the measured relaxation rates Ri in water and plasma: Ri=Ri(0)+ri[CGd], where Ri(0) represent the relaxation rate of the respective solvent and CGd the concentration of the compound normalized to the Gadolinium. The Gadolinium concentrations of the investigated solutions were verified by Inductively Coupled Plasma Mass Spectrometry (ICP-MS Agilent 7500a, Waldbronn, Germany).

Series [6] is described as follows: Water solubility (exploratory, 10 mM Tris-HCl, 20 °C). Conditions: water (10 mM Tris-HCl buffer), pH 7.4. It counts as physicochemical. As for the experimental part: The exploratory water solubilities of the compounds were determined at room temperature (20° C.) in 0.5 mL buffer solution (10 mM Tris-HCl) in the microcentrifuge tubes (Eppendorf, 2.0 mL safe-lock caps). The solid compounds were added stepwise to the buffer solution. The suspension was mixed using a shaker (Heidolph Reax 2000) and treated 5 min in an ultrasound bath (Bandelin, Sonorex Super RK255H).

Series [7] in a line: Relaxivity measurements at 3.0 T (whole body MRI scanner, 37 °C) in water and human plasma. Format: physicochemical. Conditions: normalized to Gd, average ± standard deviation. The procedure: Relaxivity Measurements at 3.0 T
Relaxivity measurements at 3.0 T were performed with a whole body 3.0 T MRI Scanner (Philips Intera, Philips Healthcare, Hamburg, Germany) using a knee-coil (SENSE-Knee-8, Philips Healthcare, Hamburg, Germany). The sample tubes (CryoTubetm Vials, Thermo Scientific 1.8 mL, Roskilde, Denmark) were positioned in 3 rows of 4 and 5 tubes in a plastic holder in a box filled with water. The temperature was adjusted to 37° C. For the MRI sequence the shortest possible echo-time (TE) with 7.46 milliseconds was used. The inversion times were chosen to optimize the sequence to measure T1 values corresponding to the estimated T1 range of all relaxation times of contrast media containing solutions. The following inversion times (TIs) were applied: 50, 100, 150, 200, 300, 500, 700, 1000, 1400, 2100, 3200, and 4500 milliseconds. The sequence was run with a constant relaxation delay of 3.4 seconds after the registration of the last echo (variable TR in the range from 3450 to 7900 milliseconds). For details of the fit procedure, see Rohrer et. al. (Invest. Radiol. 2005; 40, 11: 715-724). The experimental matrix of the phantom measurement was 320×320.
The relaxivities were evaluated using three different concentrations of each compound (3 concentrations between 0.05 and 2 mM).
The T1 relaxation times of Example compounds were measured in water and human plasma. Human plasma preparation: For each experiment fresh blood was taken from a volunteer using 10 mL citrate-tubes (Sarstedt S-Monovette 02.1067.001, 10 mL, Citrate). The 10 mL citrate-tubes were carefully inverted 10 times to mix blood and anticoagulant and centrifuged for 15 minutes at 1811 g at room temperature (Eppendorf, Centrifuge 5810R).
The relaxivities ri (where i=1, 2) were calculated on the basis of the measured relaxation rates Ri in water and plasma: Ri=Ri(0)+ri[CGd], where Ri(0) represent the relaxation rate of the respective solvent and CGd the concentration of the compound normalized to the Gadolinium (Table 2).

With `O=C([O-])CN1CCN(CC(=O)[O-])CCN([C@H](CO)[C@H](O)CO)CCN(CC(=O)[O-])CC1.[Gd+3]` (racemic) [RC1, gadobutrol, reference compound], the r1 human plasma in series [1] (1.5 T, bovine plasma instead of human plasma, from Rohrer et al.) is 5.2 L/mmol/s. Further, in series [1] (1.5 T, from Rohrer et al.), the r1 water is 3.3 L/mmol/s. Further, the r1 human plasma in series [1] (3.0 T, plasma, reference compounds marked ^ (Rohrer et al., bovine plasma per Table 1 footnote)) was 5.0 ± 0.3 L/mmol/s. In series [1] (3.0 T, reference compounds marked ^ (Rohrer et al. per Table 1 footnote)), the r1 water is 3.2 ± 0.3 L/mmol/s. Further, in series [2], the “AUC∞ Area under the curve (to infinity)” value is 11334 µmol·min/L; the “MRT Mean residence time” value is 40.5 min; the “V1 + V2 Volume, compartments V1 + V2” value stood at 0.11 L/kg; the “V2 Volume, compartment V2” value amounted to 0.16 L/kg. For the same compound, in series [2], the “Vd, ss Volume of distribution at steady state” value is 0.26 L/kg; the “t½ α Half-life, compartment V1” value is reported as 1.80 min; the “t½ β Half-life, compartment V2” value came to 22.1 min; the “t½ γ Half-life, compartment V3” value is listed as 780 min. In series [3], the “Diffusion half-live (20 kDa)” value came to 2.1 h. Moreover, the “vascular contrast at the reduced dose (25 μmol/kg) of the reference compound” value in series [4] is “considerable lower”.

For `O=C([O-])CN1CCN(CC(=O)[O-])CCN(CC(=O)N(CC(=O)NCC(CNC(=O)CN(C(=O)CN2CCN(CC(=O)[O-])CCN(CC(=O)[O-])CCN(CC(=O)[O-])CC2)C2CCCC2)(CNC(=O)CN(C(=O)CN2CCN(CC(=O)[O-])CCN(CC(=O)[O-])CCN(CC(=O)[O-])CC2)C2CCCC2)CNC(=O)CN(C(=O)CN2CCN(CC(=O)[O-])CCN(CC(=O)[O-])CCN(CC(=O)[O-])CC2)C2CCCC2)C2CCCC2)CCN(CC(=O)[O-])CC1.[Gd+3].[Gd+3].[Gd+3].[Gd+3]` [Example 8, Tetragadolinium [4,10-bis(carboxylatomethyl)-7-{3,13-dicyclopentyl-8,8-bis({[(cyclopentyl{[4,7,10-tris(carboxylatomethyl)-1,4,7,10-tetraazacyclododecan-1-yl]acetyl}-amino)acetyl]amino}methyl)-2,5,11,14-tetraoxo-15-[4,7,10-tris(carboxylatomethyl)-1,4,7,10-tetraazacyclododecan-1-yl]-3,6,10,13-tetraazapentadec-1-yl}-1,4,7,10-tetra-azacyclododecan-1-yl]acetate], the r1 human plasma in series [5] (human plasma) is 14.1 L/mmol/s; in series [7] (human plasma) it was 12.0 ± 0.4 L/mmol/s. In addition, the r1 water came to 11.7 L/mmol/s in series [5] (water) and 10.7 ± 0.1 L/mmol/s in series [7] (water). In series [6], this compound returned a Solubility greater than 1000 mg/100 mL. Further, the “Diffusion half-live (20 kDa)” value in series [3] was 10.5 h.
